According to patent publication US9241484B2, “Compositions of dibromomalonamide and their use as biocides” (Dow Global Technologies LLC, priority 2011, dated 2016):

System: mixture of Pseudomonas aeruginosa, Klebsiella pneumoniae, Staphylococcus aureus, and Bacillus subtilis
Experiment: Growth inhibition assay (microtiter plate-based synergy assay)
Settings: active used alone; dilute mineral salts medium pH 7.5; 37° C., 24 hr; OD580
Text: Growth Inhibition Assay. […] Regardless of the mechanism of action, the impact of a biocide (or combination of biocides) can be measured over time on the basis of an increase in the size of the community.
The assay measures the efficacy of one or more biocides at preventing growth of a consortium of bacteria in a dilute mineral salts medium. The medium contains (in mg/l) the following components: FeCl3.6H2O (1); CaCl2.2H2O (10); MgSO4.7H2O (22.5); (NH4)2SO4 (40); KH2PO4 (10); K2HPO4 (25.5); Yeast Extract (10); and glucose (100). After all components are added to deionized water, the pH of the medium is adjusted to 7.5. Following filter sterilization, aliquots are dispensed in 100 μl quantities to sterile microtiter plate wells. Dilutions of 2,2-dibromomalonamide (“DBMAL”) and/or “Biocide B” are then added to the microtiter plate. After preparing the combinations of actives as illustrated below, each well is inoculated with 100 μl of a cell suspension containing ca. 1×10^6 cells per milliliter of a mixture of Pseudomonas aeruginosa, Klebsiella pneumoniae, Staphylococcus aureus, and Bacillus subtilis. The final total volume of medium in each well is 300 μl. Once prepared as described herein, the concentration of each active ranges from 25 ppm to 0.195 ppm as illustrated in Table 1. The resulting matrix allows testing of eight concentrations of each active and 64 combinations of actives in the ratios (of actives).
Immediately after the microtiter plates are prepared, the optical density (OD) readings for each well is measured at 580 nm and the plates are then incubated at 37° C. for 24 hr. After the incubation period, the plates are gently agitated before OD580 values are collected. The OD580 values at T0 are subtracted from T24 values to determine the total amount of growth (or lack thereof) that occurs. These values are used to calculate the percent inhibition of growth caused by the presence of each biocide and each of the 64 combinations. A 90% inhibition of growth is used as a threshold for calculating synergy index (SI) values with the following equation: Synergy Index=MDBMAL/CDBMAL+MB/CB
where • CDBMAL: Concentration of DBMAL required to inhibit ≧90% of bacterial growth when used alone • CB: Concentration of biocide (B) required to inhibit ≧90% of bacterial growth when used alone. • MDBMAL: Concentration of DBMAL required to inhibit ≧90% of bacterial growth when used in combination with biocide (B). • MB: Concentration of biocide (B) required to inhibit ≧90% of bacterial growth when used in combination with DBMAL The SI values are interpreted as follows: • SI<1: Synergistic combination • SI=1: Additive combination • SI>1: Antagonistic combination
In the Examples below, the amounts of biocides in the solution are measured in mg per liter of solution (mg/l). Since solution densities are approximately 1.00, the mg/l measurement corresponds to weight and can be expressed as parts per million (ppm). Both units may therefore be used interchangeably in the Examples.

Row | Compound | I90 value (minimum concentration to result in at least 90% inhibition of growth)
1 | CC1(C)C(=O)N(Br)C(=O)N1Br [DBDMH, dibromodimethylhydantoin] | 3.13 mg/L
2 | NC(=O)C(Br)(Br)C(N)=O [DBMAL, 2,2-dibromomalonamide] | 6.25 mg/L
3 | CC1(C)C(=O)N(Cl)C(=O)N1Cl [DCDMH, dichlorodimethylhydantoin] | 0.78 mg/L
4 | OBr [HOBr, hypobromous acid] | 12.5 mg/L
5 | OCl [HOCl, hypochlorous acid] | 0.78 mg/L
6 | monochlorodimethylhydantoin [MCDMH] | 3.13 mg/L
